In US20050096254A1, “Peptide deformylase activated prodrugs” (priority 2002, published 2005):
Converted amounts (≈) assume the structure as drawn.

Legend:
Assay in all cases: MIC susceptibility testing (modified NCCLS)
Type in all cases: cell-based
E. aerogenes = system: E. aerogenes
Description: (§1) The NCCLS (National Committee for Clinical Laboratory Standards), method to determine MIC's of antimicrobial compounds is modified for high-throughput screening. All stocks of tested compounds are prepared in either water or in DMSO depending on solubility. At the highest concentration, DMSO content should not exceed 0.5%. Briefly, twenty 2-fold serial dilutions of test compounds from the highest concentration is made in a 384-well microtiter plate. Each well is inoculated with testing bacteria in broth to a final concentration of approximately 1-1.5×10^6 cells/ml. Bacterial growth is determined by the increase of optical density at 600 nm using a microplate reader (Tecan SpectraFluor Plus).

E. faecalis = system: E. faecalis
Description: as §1

H. influenzae = system: H. influenzae
Description: as §1

K. pneumoniae = system: K. pneumoniae
Description: as §1

M. catarrhalis = system: M. catarrhalis
Description: as §1

S. aureus = system: S. aureus
Description: as §1

S. epidermidis = system: S. epidermidis
Description: as §1

E. coli/Tem-1 = conditions: Table 4, E. coli expressing TEM-1 beta-lactamase
Description: as §1, with “Plus). The MIC is defined as the lowest concentration at which bacterial growth (equivalent to visible growth) was inhibited after 16 to 18 hours of incubation at the appropriate temperature required for the bacteria growth.” for “Plus).”
E. coli/TEM—E. coli expressing TEM-1 beta-lactamase; MRSA—Methicillin Resistant S. Aureus; MSSA—Methicillin Sensitive S. Aureus.

P. aeruginosa = system: P. aeruginosa
Description: The NCCLS (National Committee for Clinical Laboratory Standards), method to determine MIC's of antimicrobial compounds is modified for high-throughput screening. All stocks of tested compounds are prepared in either water or in DMSO depending on solubility. At the highest concentration, DMSO content should not exceed 0.5%. Briefly, twenty 2-fold serial dilutions of test compounds from the highest concentration is made in a 384-well microtiter plate. […] Bacterial growth is determined by the increase of optical density at 600 nm using a microplate reader (Tecan SpectraFluor Plus).

Question: What does the source list for `CSCC[C@H](NC=O)C(=O)N[C@@H](CC(C)C)C(=O)Oc1cc(Cl)ccc1Oc1ccc(Cl)cc1Cl` [Compound #2]?
Answer: MIC (E. aerogenes; Table 3, E. aerogenes ATCC 13048, Exp. #1): 1 µg/mL (≈ 1.78 µM); MIC (E. aerogenes; Table 3, E. aerogenes ATCC 13048, Exp. #2): 1 µg/mL (≈ 1.78 µM); MIC (E. aerogenes; Table 3, E. aerogenes ATCC 29009, Exp. #1): 0.25 µg/mL (≈ 0.445 µM); MIC (E. aerogenes; Table 3, E. aerogenes ATCC 29009, Exp. #2): ≦0.125 μg/ml; MIC (E. aerogenes; Table 3, E. aerogenes ATCC 29751, Exp. #1): 2 µg/mL (≈ 3.56 µM); MIC (E. aerogenes; Table 3, E. aerogenes ATCC 29751, Exp. #2): 1 µg/mL (≈ 1.78 µM); MIC (E. aerogenes; Table 3, E. aerogenes ATCC 35028, Exp. #1): 4 µg/mL (≈ 7.12 µM); MIC (E. aerogenes; Table 3, E. aerogenes ATCC 35028, Exp. #2): 2 µg/mL (≈ 3.56 µM); MIC (E. aerogenes; Table 4, E. aerogenes ATCC 35028, Exp. #1): 32 µg/mL (≈ 56.9 µM); MIC (E. aerogenes; Table 4, E. aerogenes ATCC 35028, Exp. #2): 16 µg/mL (≈ 28.5 µM); MIC (E. faecalis; Table 4, E. faecalis ATCC 49757, Exp. #1): 64 µg/mL (≈ 114 µM); MIC (E. faecalis; Table 4, E. faecalis ATCC 49757, Exp. #2): 32 µg/mL (≈ 56.9 µM); MIC (E. faecalis; Table 4, E. faecalis ATCC 700802, Exp. #1): 32 µg/mL (≈ 56.9 µM); MIC (E. faecalis; Table 4, E. faecalis ATCC 700802, Exp. #2): 32 µg/mL (≈ 56.9 µM); MIC (H. influenzae; Table 4, H. influenzae ATCC 33533, Exp. #1): 64 µg/mL (≈ 114 µM); MIC (H. influenzae; Table 4, H. influenzae ATCC 33533, Exp. #2): ≧64 μg/ml; MIC (K. pneumoniae; Table 3, K. pneumoniae ATCC 51503, Exp. #1): 8 µg/mL (≈ 14.2 µM); MIC (K. pneumoniae; Table 3, K. pneumoniae ATCC 51503, Exp. #2): 8 µg/mL (≈ 14.2 µM); MIC (K. pneumoniae; Table 3, K. pneumoniae ATCC 51504, Exp. #1): 1 µg/mL (≈ 1.78 µM); MIC (K. pneumoniae; Table 3, K. pneumoniae ATCC 51504, Exp. #2): 2 µg/mL (≈ 3.56 µM); MIC (K. pneumoniae; Table 3, K. pneumoniae ATCC 700721, Exp. #1): 2 µg/mL (≈ 3.56 µM); MIC (K. pneumoniae; Table 3, K. pneumoniae ATCC 700721, Exp. #2): 2 µg/mL (≈ 3.56 µM); MIC (K. pneumoniae; Table 4, K. pneumoniae ATCC 51503, Exp. #1): 4 µg/mL (≈ 7.12 µM); MIC (K. pneumoniae; Table 4, K. pneumoniae ATCC 51503, Exp. #2): 8 µg/mL (≈ 14.2 µM); MIC (K. pneumoniae; Table 4, K. pneumoniae ATCC 700721, Exp. #1): 4 µg/mL (≈ 7.12 µM); MIC (K. pneumoniae; Table 4, K. pneumoniae ATCC 700721, Exp. #2): 8 µg/mL (≈ 14.2 µM); MIC (M. catarrhalis; Table 3, M. catarrhalis ATCC 43627, Exp. #1): ≦0.125 μg/ml; MIC (M. catarrhalis; Table 3, M. catarrhalis ATCC 43627, Exp. #2): ≦0.125 μg/ml; MIC (M. catarrhalis; Table 3, M. catarrhalis ATCC 43628, Exp. #1): ≦0.125 μg/ml; MIC (M. catarrhalis; Table 3, M. catarrhalis ATCC 43628, Exp. #2): ≦0.125 μg/ml; MIC (M. catarrhalis; Table 3, M. catarrhalis ATCC 49265, Exp. #1): ≦0.125 μg/ml; MIC (M. catarrhalis; Table 3, M. catarrhalis ATCC 49265, Exp. #2): ≦0.125 μg/ml; MIC (M. catarrhalis; Table 3, M. catarrhalis ATCC 51584, Exp. #1): ≦0.125 μg/ml; MIC (M. catarrhalis; Table 3, M. catarrhalis ATCC 51584, Exp. #2): ≦0.125 μg/ml; MIC (S. aureus; Table 3, S. aureus ATCC 11632, Exp. #1): ≦0.125 μg/ml; MIC (S. aureus; Table 3, S. aureus ATCC 11632, Exp. #2): ≦0.125 μg/ml; MIC (S. aureus; Table 3, S. aureus ATCC 13301, Exp. #1): ≦0.125 μg/ml; MIC (S. aureus; Table 3, S. aureus ATCC 13301, Exp. #2): ≦0.125 μg/ml; MIC (S. aureus; Table 3, S. aureus ATCC 14154, Exp. #1): ≦0.125 μg/ml; MIC (S. aureus; Table 3, S. aureus ATCC 14154, Exp. #2): ≦0.125 μg/ml; MIC (S. aureus; Table 3, S. aureus ATCC 33591, Exp. #1): ≦0.125 μg/ml; MIC (S. aureus; Table 3, S. aureus ATCC 33591, Exp. #2): ≦0.125 μg/ml; MIC (S. aureus; Table 3, S. aureus ATCC 33592, Exp. #1): ≦0.125 μg/ml; MIC (S. aureus; Table 3, S. aureus ATCC 33592, Exp. #2): ≦0.125 μg/ml; MIC (S. aureus; Table 3, S. aureus ATCC 33593, Exp. #1): ≦0.125 μg/ml; MIC (S. aureus; Table 3, S. aureus ATCC 33593, Exp. #2): ≦0.125 μg/ml; MIC (S. aureus; Table 3, S. aureus ATCC 43300, Exp. #1): ≦0.125 μg/ml; MIC (S. aureus; Table 3, S. aureus ATCC 43300, Exp. #2): ≦0.125 μg/ml; MIC (S. aureus; Table 3, S. aureus ATCC 700260, Exp. #1): ≦0.125 μg/ml; MIC (S. aureus; Table 3, S. aureus ATCC 700260, Exp. #2): ≦0.125 μg/ml; MIC (S. aureus; Table 3, S. aureus ATCC 700698, Exp. #1): ≦0.125 μg/ml; MIC (S. aureus; Table 3, S. aureus ATCC 700698, Exp. #2): ≦0.125 μg/ml; MIC (S. aureus; Table 3, S. aureus ATCC 700699, Exp. #1): 16000 ng/mL (≈ 28.5 µM); MIC (S. aureus; Table 3, S. aureus ATCC 700699, Exp. #2): 8000 ng/mL (≈ 14.2 µM); MIC (S. aureus; Table 3, S. aureus ATCC 700787, Exp. #1): ≦0.125 μg/ml; MIC (S. aureus; Table 3, S. aureus ATCC 700787, Exp. #2): ≦0.125 μg/ml; MIC (S. aureus; Table 3, S. aureus ATCC 700788, Exp. #1): ≦0.125 μg/ml; MIC (S. aureus; Table 3, S. aureus ATCC 700788, Exp. #2): ≦0.125 μg/ml; MIC (S. aureus; Table 3, S. aureus ATCC 700789, Exp. #1): ≦0.125 μg/ml; MIC (S. aureus; Table 3, S. aureus ATCC 700789, Exp. #2): ≦0.125 μg/ml; MIC (S. aureus; Table 4, MRSA ATCC 700699, Exp. #1): 32000 ng/mL (≈ 56.9 µM); MIC (S. aureus; Table 4, MRSA ATCC 700699, Exp. #2): 32000 ng/mL (≈ 56.9 µM); MIC (S. aureus; Table 4, MSSA ATCC 11632, Exp. #1): 32000 ng/mL (≈ 56.9 µM); MIC (S. aureus; Table 4, MSSA ATCC 11632, Exp. #2): 16000 ng/mL (≈ 28.5 µM); MIC (S. aureus; Table 4, MSSA ATCC 33594, Exp. #1): ≦0.125 μg/ml; MIC (S. aureus; Table 4, MSSA ATCC 33594, Exp. #2): ≦0.125 μg/ml; MIC (S. aureus; Table 4, MSSA ATCC 700260, Exp. #1): ≦0.125 μg/ml; MIC (S. aureus; Table 4, MSSA ATCC 700260, Exp. #2): 4000 ng/mL (≈ 7.12 µM); MIC (S. aureus; Table 5, MSSA ATCC 11632): 0.977 ng/mL (≈ 0.00174 µM); MIC (S. aureus; Table 5, MSSA ATCC 13301): 0.015 ng/mL (≈ 2.67e-05 µM); MIC (S. aureus; Table 5, MSSA ATCC 14154): 0.977 ng/mL (≈ 0.00174 µM); MIC (S. aureus; Table 5, MSSA ATCC 33591): 15.63 ng/mL (≈ 0.0278 µM); MIC (S. aureus; Table 5, MSSA ATCC 33592): 0.488 ng/mL (≈ 0.000868 µM); MIC (S. aureus; Table 5, MSSA ATCC 33593): 0.488 ng/mL (≈ 0.000868 µM); MIC (S. aureus; Table 5, MSSA ATCC 43300): 0.977 ng/mL (≈ 0.00174 µM); MIC (S. aureus; Table 5, MSSA ATCC 700260): 0.031 ng/mL (≈ 5.52e-05 µM); MIC (S. aureus; Table 5, MSSA ATCC 700698): 3.906 ng/mL (≈ 0.00695 µM); MIC (S. aureus; Table 5, MSSA ATCC 700699): ≧4 μg/ml; MIC (S. aureus; Table 5, MSSA ATCC 700787): 7.813 ng/mL (≈ 0.0139 µM); MIC (S. aureus; Table 5, MSSA ATCC 700788): 62.5 ng/mL (≈ 0.111 µM); MIC (S. aureus; Table 5, MSSA ATCC 700789): 15.63 ng/mL (≈ 0.0278 µM); MIC (S. epidermidis; Table 3, S. epidermidis ATCC 27626, Exp. #1): ≦0.125 μg/ml; MIC (S. epidermidis; Table 3, S. epidermidis ATCC 27626, Exp. #2): ≦0.125 μg/ml; MIC (S. epidermidis; Table 3, S. epidermidis ATCC 700565, Exp. #1): 2 µg/mL (≈ 3.56 µM); MIC (S. epidermidis; Table 3, S. epidermidis ATCC 700565, Exp. #2): 2 µg/mL (≈ 3.56 µM); MIC (S. epidermidis; Table 3, S. epidermidis ATCC 700566, Exp. #1): ≦0.125 μg/ml; MIC (S. epidermidis; Table 3, S. epidermidis ATCC 700566, Exp. #2): ≦0.125 μg/ml; MIC (S. epidermidis; Table 3, S. epidermidis ATCC 700578, Exp. #1): 0.5 µg/mL (≈ 0.89 µM); MIC (S. epidermidis; Table 3, S. epidermidis ATCC 700578, Exp. #2): 0.25 µg/mL (≈ 0.445 µM); MIC (S. epidermidis; Table 3, S. epidermidis ATCC 700583, Exp. #1): ≦0.125 μg/ml; MIC (S. epidermidis; Table 3, S. epidermidis ATCC 700583, Exp. #2): ≦0.125 μg/ml; MIC (E. coli/Tem-1; Exp. #1): 16 µg/mL (≈ 28.5 µM); MIC (E. coli/Tem-1; Exp. #2): 16 µg/mL (≈ 28.5 µM); MIC (P. aeruginosa; Table 4, P. aeruginosa ATCC 21726, Exp. #1): >64 µg/mL; MIC (P. aeruginosa; Table 4, P. aeruginosa ATCC 21726, Exp. #2): ≧64 μg/ml; MIC (P. aeruginosa; Table 4, P. aeruginosa ATCC 29872, Exp. #1): >64 µg/mL; MIC (P. aeruginosa; Table 4, P. aeruginosa ATCC 29872, Exp. #2): ≧64 μg/ml
